Laboratory results taken from the supplement of paper PMC10307832.

Experiments:
Assay in all cases: relative viability (nuclei count vs DMSO), 5 days (fraction); higher = more cells survive
NCI-H358 = tested on: NCI-H358
Summary of the method: (§1)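 Medians of duplicate plates are given as relative viability. That measure is the nuclei count in treated wells divided by the count in vehicle wells. Counts were taken on 4× images of lung cancer cell lines in 1536-well plates, 5 days after pin-tool dosing the day after seeding with one drug alone or a fixed anchor-drug dose plus five library-drug doses (not always all listed) in √10 steps.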

LOU-NH91 = tested on: LOU-NH91
Summary of the method: as §1

EKVX = tested on: EKVX
Summary of the method: as §1

NCI-H838 = tested on: NCI-H838
Summary of the method: as §1

NCI-H1395 = tested on: NCI-H1395
Summary of the method: as §1

NCI-H2085 = tested on: NCI-H2085
Summary of the method: as §1

HCC-44 = tested on: HCC-44
Summary of the method: as §1

NCI-H1734 = tested on: NCI-H1734
Summary of the method: as §1

NCI-H1975 = tested on: NCI-H1975
Summary of the method: as §1

BEN = tested on: BEN
Summary of the method: as §1

NCI-H1355 = tested on: NCI-H1355
Summary of the method: as §1

CAL-12T = tested on: CAL-12T
Summary of the method: as §1

LU99A = tested on: LU99A
Summary of the method: as §1

NCI-H2023 = tested on: NCI-H2023
Summary of the method: as §1

NCI-H1437 = tested on: NCI-H1437
Summary of the method: as §1

NCI-H1651 = tested on: NCI-H1651
Summary of the method: as §1

NCI-H441 = tested on: NCI-H441
Summary of the method: as §1

NCI-H1563 = tested on: NCI-H1563
Summary of the method: as §1

NCI-H460 = tested on: NCI-H460
Summary of the method: as §1

HCC-366 = tested on: HCC-366
Summary of the method: as §1

NCI-H1755 = tested on: NCI-H1755
Summary of the method: as §1

Question: What does the source list for CC1(C)CCC(c2ccc(Cl)cc2)=C(CN2CCN(c3ccc(C(=O)NS(=O)(=O)c4ccc(N[C@H](CCN5CCOCC5)CSc5ccccc5)c(S(=O)(=O)C(F)(F)F)c4)cc3)CC2)C1 [Navitoclax] + C[C@]1(O)C[C@@H](c2nc(-c3ccc4ccc(-c5ccccc5)nc4c3)c3c(N)nccn32)C1 [Linsitinib] (partner 1 µM)?
Answer: relative viability (NCI-H358; first compound 0.005 µM): 0.763; relative viability (NCI-H358; first compound 0.01581 µM): 0.956; relative viability (NCI-H358; first compound 0.05 µM): 0.813; relative viability (NCI-H358; first compound 0.1581 µM): 0.898; relative viability (NCI-H358; first compound 0.5 µM): 0.822; relative viability (LOU-NH91; first compound 0.005 µM): 0.974; relative viability (LOU-NH91; first compound 0.01581 µM): 0.999; relative viability (LOU-NH91; first compound 0.05 µM): 0.933; relative viability (LOU-NH91; first compound 0.1581 µM): 1.02; relative viability (LOU-NH91; first compound 0.5 µM): 0.842; relative viability (EKVX; first compound 0.005 µM): 0.953; relative viability (EKVX; first compound 0.01581 µM): 1.28; relative viability (EKVX; first compound 0.05 µM): 0.954; relative viability (EKVX; first compound 0.1581 µM): 0.953; relative viability (EKVX; first compound 0.5 µM): 1.01; relative viability (NCI-H838; first compound 0.005 µM): 0.89; relative viability (NCI-H838; first compound 0.01581 µM): 1.11; relative viability (NCI-H838; first compound 0.05 µM): 1.12; relative viability (NCI-H838; first compound 0.1581 µM): 1.03; relative viability (NCI-H838; first compound 0.5 µM): 1.03; relative viability (NCI-H1395; first compound 0.005 µM): 0.938; relative viability (NCI-H1395; first compound 0.01581 µM): 1.34; relative viability (NCI-H1395; first compound 0.05 µM): 1.08; relative viability (NCI-H1395; first compound 0.1581 µM): 1.13; relative viability (NCI-H1395; first compound 0.5 µM): 1.27; relative viability (NCI-H2085; first compound 0.005 µM): 0.828; relative viability (NCI-H2085; first compound 0.01581 µM): 0.96; relative viability (NCI-H2085; first compound 0.05 µM): 0.831; relative viability (NCI-H2085; first compound 0.1581 µM): 1; relative viability (NCI-H2085; first compound 0.5 µM): 0.947; relative viability (HCC-44; first compound 0.005 µM): 0.592; relative viability (HCC-44; first compound 0.01581 µM): 0.625; relative viability (HCC-44; first compound 0.05 µM): 0.594; relative viability (HCC-44; first compound 0.1581 µM): 0.649; relative viability (HCC-44; first compound 0.5 µM): 0.646; relative viability (NCI-H1734; first compound 0.005 µM): 0.834; relative viability (NCI-H1734; first compound 0.01581 µM): 0.948; relative viability (NCI-H1734; first compound 0.1581 µM): 0.797; relative viability (NCI-H1734; first compound 0.5 µM): 0.857; relative viability (NCI-H1975; first compound 0.005 µM): 1.01; relative viability (NCI-H1975; first compound 0.01581 µM): 1.14; relative viability (NCI-H1975; first compound 0.05 µM): 1.07; relative viability (NCI-H1975; first compound 0.1581 µM): 0.869; relative viability (NCI-H1975; first compound 0.5 µM): 1; relative viability (BEN; first compound 0.005 µM): 0.841; relative viability (BEN; first compound 0.01581 µM): 0.921; relative viability (BEN; first compound 0.05 µM): 0.958; relative viability (BEN; first compound 0.1581 µM): 0.911; relative viability (BEN; first compound 0.5 µM): 0.634; relative viability (NCI-H1355; first compound 0.005 µM): 0.831; relative viability (NCI-H1355; first compound 0.01581 µM): 0.892; relative viability (NCI-H1355; first compound 0.05 µM): 0.817; relative viability (NCI-H1355; first compound 0.1581 µM): 0.775; relative viability (NCI-H1355; first compound 0.5 µM): 0.834; relative viability (CAL-12T; first compound 0.005 µM): 0.849; relative viability (CAL-12T; first compound 0.01581 µM): 0.937; relative viability (CAL-12T; first compound 0.05 µM): 0.775; relative viability (CAL-12T; first compound 0.1581 µM): 0.736; relative viability (CAL-12T; first compound 0.5 µM): 0.726; relative viability (LU99A; first compound 0.005 µM): 0.622; relative viability (LU99A; first compound 0.01581 µM): 0.67; relative viability (LU99A; first compound 0.05 µM): 0.444; relative viability (LU99A; first compound 0.1581 µM): 0.543; relative viability (LU99A; first compound 0.5 µM): 0.522; relative viability (NCI-H2023; first compound 0.005 µM): 0.625; relative viability (NCI-H2023; first compound 0.01581 µM): 0.713; relative viability (NCI-H2023; first compound 0.05 µM): 0.716; relative viability (NCI-H2023; first compound 0.1581 µM): 0.766; relative viability (NCI-H2023; first compound 0.5 µM): 0.647; relative viability (NCI-H1437; first compound 0.005 µM): 0.952; relative viability (NCI-H1437; first compound 0.01581 µM): 1.08; relative viability (NCI-H1437; first compound 0.05 µM): 1.02; relative viability (NCI-H1437; first compound 0.1581 µM): 1.09; relative viability (NCI-H1437; first compound 0.5 µM): 0.95; relative viability (NCI-H1651; first compound 0.005 µM): 0.945; relative viability (NCI-H1651; first compound 0.01581 µM): 1.25; relative viability (NCI-H1651; first compound 0.1581 µM): 0.966; relative viability (NCI-H1651; first compound 0.5 µM): 0.937; relative viability (NCI-H441; first compound 0.005 µM): 0.449; relative viability (NCI-H441; first compound 0.01581 µM): 0.587; relative viability (NCI-H441; first compound 0.05 µM): 0.412; relative viability (NCI-H441; first compound 0.1581 µM): 0.44; relative viability (NCI-H441; first compound 0.5 µM): 0.706; relative viability (NCI-H1563; first compound 0.005 µM): 0.99; relative viability (NCI-H1563; first compound 0.01581 µM): 1.13; relative viability (NCI-H1563; first compound 0.05 µM): 1.17; relative viability (NCI-H1563; first compound 0.1581 µM): 1.24; relative viability (NCI-H1563; first compound 0.5 µM): 1.27; relative viability (NCI-H460; first compound 0.005 µM): 0.77; relative viability (NCI-H460; first compound 0.01581 µM): 0.825; relative viability (NCI-H460; first compound 0.05 µM): 0.919; relative viability (NCI-H460; first compound 0.1581 µM): 0.896; relative viability (NCI-H460; first compound 0.5 µM): 0.744; relative viability (HCC-366; first compound 0.005 µM): 0.672; relative viability (HCC-366; first compound 0.01581 µM): 0.728; relative viability (HCC-366; first compound 0.05 µM): 0.155; relative viability (HCC-366; first compound 0.1581 µM): 0.615; relative viability (HCC-366; first compound 0.5 µM): 0.449; relative viability (NCI-H1755; first compound 0.005 µM): 0.969; relative viability (NCI-H1755; first compound 0.01581 µM): 0.993; relative viability (NCI-H1755; first compound 0.05 µM): 0.954; relative viability (NCI-H1755; first compound 0.1581 µM): 0.968; relative viability (NCI-H1755; first compound 0.5 µM): 1.02
